This note sets out measurements from patent US20100094430A1, “Device” (priority 2006, published 2010).

Structures are written as SMILES.

The nature of the data set: Solubility of precursor compounds in methanol. The format is physicochemical. The procedure:
Ca(dbm)2.4H2O (1 g) was weighed into a 250 mL conical flask. Methanol (50 mL) was added, the flask was stoppered and the solution was swirled for […]2 min. The solution was incubated in a water bath at varying temperatures (20°, 30° or 40° C.) for a period of 4 or 17 h. At the end of the incubation period, two 20 mL aliquots of the solution were filtered into separate, pre-weighed round bottomed flasks. […] Experiments for all conditions were carried out in duplicate. The results of the solubility experiments are compiled in Table 2.

As to `O.O.O.O.O=C(C=C([O-])c1ccccc1)c1ccccc1.O=C(C=C([O-])c1ccccc1)c1ccccc1.[Ca+2]` [Ca(dbm)2•4H2O, Ca(dbm)2.4H2O], the solubility in methanol is, setting by setting: (incubation 20° C., 4 h) 1.78 ± 0.1 g/100 mL; (incubation 20° C., 17 h) 1.91 ± 0.5 g/100 mL; (incubation 30° C., 4 h) 1.86 ± 0.1 g/100 mL; (incubation 30° C., 17 h) 1.88 ± 0.5 g/100 mL; (incubation 40° C., 4 h) 1.98 ± 0.2 g/100 mL; (incubation 40° C., 17 h) 1.92 ± 0.4 g/100 mL. In addition, where the note is “qualitative comparison”, the “solubility in methanol relative to the acac and benzoylacetone calcium complexes” value is given as “higher solubility”.
